Test results taken from patent publication US10597388B2, “Pyridazinone herbicides” (FMC CORPORATION, priority 2014, dated 2020).

Assays:
Format in all cases: in vivo
[1] = tested on: barnyardgrass (Echinochloa crus-galli); test: Test C greenhouse herbicide test, pre- and postemergence
Outline: (§1)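 Visual 0–100 injury score (100 = complete control) taken against untreated controls after 13–15 d in greenhouse. Test chemicals, formulated in solvent plus surfactant, applied preemergence to seeds in loam–sand soil or postemergence to 1- to 4-leaf plants (2–18 cm).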

[2] = tested on: blackgrass (Alopecurus myosuroides); test: as above
Outline: as §1

[3] = tested on: corn (Zea mays); test: as above
Outline: as §1

[4] = tested on: crabgrass, large (large crabgrass, Digitaria sanguinalis); test: as above
Outline: as §1

[5] = tested on: foxtail, giant (giant foxtail, Setaria faberii); test: as above; details: Postemergence
Outline: as §1

[6] = tested on: johnsongrass (Sorghum halepense); test: as above
Outline: as §1

[7] = tested on: lambsquarters (Chenopodium album); test: as above
Outline: as §1

[8] = tested on: morningglory (Ipomoea coccinea); test: as above
Outline: as §1

[9] = tested on: pigweed (Amaranthus retroflexus); test: as above
Outline: as §1

[10] = tested on: ragweed (common ragweed, Ambrosia elatior); test: as above
Outline: as §1

[11] = tested on: ryegrass, Italian (Italian ryegrass, Lolium multiflorum); test: as above
Outline: as §1

[12] = tested on: soybean (Glycine max); test: as above
Outline: as §1

[13] = tested on: waterhemp (common waterhemp, Amaranthus rudis); test: as above
Outline: as §1

[14] = tested on: wheat (winter wheat, Triticum aestivum); test: as above
Outline: as §1

[15] = tested on: kochia (Kochia scoparia); test: Test C greenhouse herbicide test, postemergence; details: Postemergence
Outline: (§2)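 Test chemicals were applied postemergence to greenhouse plants at the 1- to 4-leaf stage (2–18 cm tall) growing in peat/vermiculite medium. After 13–15 d, injury was rated visually against untreated controls on a 0–100 scale (0 = no effect, 100 = complete control).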

[16] = tested on: oat, wild (wild oat, Avena fatua); test: Test C greenhouse herbicide test, postemergence; details: Postemergence
Outline: as §2

[17] = Postemergence, 31 g ai/ha, scale 0 to 100 (0 no effect, 100 complete control)
[18] = Postemergence, 125 g ai/ha, scale 0 to 100, 0 is no effect, 100 is complete control
[19] = Postemergence, 250 g ai/ha, scale 0 to 100, 0 no effect, 100 complete control, 13 to 15 d
[20] = Preemergence, 31 g ai/ha, scale 0 to 100, 0 is no effect, 100 is complete control
[21] = Preemergence, 62 g ai/ha, scale 0 to 100, 0 is no effect, 100 is complete control
[22] = Preemergence, 125 g ai/ha, scale 0 to 100, 0 is no effect, 100 is complete control
[23] = Preemergence, 250 g ai/ha, scale 0 to 100 (0 no effect, 100 complete control)
[24] = postemergence, 62 g ai/ha, scale 0 to 100, 0 no effect, 100 complete control
[25] = 31 g ai/ha, scale 0 to 100 (0 no effect, 100 complete control)
[26] = 125 g ai/ha, scale 0 to 100, 0 is no effect, 100 is complete control
[27] = 250 g ai/ha, scale 0 to 100, 0 no effect, 100 complete control, 13 to 15 d

CCC(=O)Oc1c(Cl)nn(C)c(=O)c1-c1c(C)sc2ccc(Cl)cc12 [Compound 111]
Plant response rating, Barnyardgrass [1, 17]: 10 | Plant response rating, Barnyardgrass [1, 18]: 45 | Plant response rating, Barnyardgrass [1, 19]: 40 | Plant response rating, Barnyardgrass [1, 20]: 10 | Plant response rating, Barnyardgrass [1, 21]: 20 | Plant response rating, Barnyardgrass [1, 22]: 55 | Barnyardgrass plant response rating [1, 23]: 85 | Barnyardgrass plant response rating [1, 24]: 30 | Plant response rating, Blackgrass [2, 17]: 0 | Plant response rating, Blackgrass [2, 18]: 20 | Plant response rating, Blackgrass [2, 19]: 35 | Plant response rating, Blackgrass [2, 20]: 0 | Plant response rating, Blackgrass [2, 21]: 5 | Plant response rating, Blackgrass [2, 22]: 5 | Blackgrass plant response rating [2, 23]: 20 | Blackgrass plant response rating [2, 24]: 5 | Plant response rating, Corn [3, 17]: 5 | Plant response rating, Corn [3, 18]: 15 | Plant response rating, Corn [3, 19]: 10 | Plant response rating, Corn [3, 20]: 0 | Plant response rating, Corn [3, 21]: 0 | Plant response rating, Corn [3, 22]: 0 | Corn plant response rating [3, 23]: 15 | Corn plant response rating [3, 24]: 10 | Plant response rating, Crabgrass, Large [4, 17]: 10 | Plant response rating, Crabgrass, Large [4, 18]: 25 | Plant response rating, Crabgrass, Large [4, 19]: 25 | Plant response rating, Crabgrass, Large [4, 20]: 5 | Plant response rating, Crabgrass, Large [4, 21]: 5 | Plant response rating, Crabgrass, Large [4, 22]: 85 | Crabgrass, Large plant response rating [4, 23]: 80 | Crabgrass, Large plant response rating [4, 24]: 20 | Plant response rating, Foxtail, Giant [5, 25]: 15 | Plant response rating, Foxtail, Giant [5, 26]: 70 | Plant response rating, Foxtail, Giant [5, 27]: 85 | Plant response rating, Johnsongrass [6, 17]: 10 | Plant response rating, Johnsongrass [6, 18]: 15 | Plant response rating, Johnsongrass [6, 19]: 10 | Plant response rating, Johnsongrass [6, 20]: 0 | Plant response rating, Johnsongrass [6, 21]: 0 | Plant response rating, Johnsongrass [6, 22]: 0 | Johnsongrass plant response rating [6, 23]: 20 | Plant response rating, Lambsquarters [7, 17]: 90 | Plant response rating, Lambsquarters [7, 18]: 100 | Plant response rating, Lambsquarters [7, 19]: 100 | Plant response rating, Lambsquarters [7, 20]: 90 | Plant response rating, Lambsquarters [7, 21]: 95 | Plant response rating, Lambsquarters [7, 22]: 90 | Lambsquarters plant response rating [7, 23]: 95 | Plant response rating, Morningglory [8, 17]: 100 | Plant response rating, Morningglory [8, 18]: 100 | Plant response rating, Morningglory [8, 19]: 100 | Plant response rating, Morningglory [8, 20]: 50 | Plant response rating, Morningglory [8, 21]: 70 | Plant response rating, Morningglory [8, 22]: 95 | Morningglory plant response rating [8, 23]: 98 | Plant response rating, Pigweed [9, 17]: 85 | Plant response rating, Pigweed [9, 18]: 90 | Plant response rating, Pigweed [9, 19]: 98 | Plant response rating, Pigweed [9, 20]: 98 | Plant response rating, Pigweed [9, 21]: 90 | Plant response rating, Pigweed [9, 22]: 98 | Pigweed plant response rating [9, 23]: 100 | Plant response rating, Ragweed [10, 17]: 98 | Plant response rating, Ragweed [10, 18]: 98 | Plant response rating, Ragweed [10, 19]: 100 | Plant response rating, Ragweed [10, 20]: 60 | Plant response rating, Ragweed [10, 21]: 75 | Plant response rating, Ragweed [10, 22]: 90 | Ragweed plant response rating [10, 23]: 98 | Plant response rating, Ryegrass, Italian [11, 17]: 85 | Plant response rating, Ryegrass, Italian [11, 18]: 95 | Plant response rating, Ryegrass, Italian [11, 19]: 95 | Plant response rating, Ryegrass, Italian [11, 20]: 10 | Plant response rating, Ryegrass, Italian [11, 21]: 90 | Plant response rating, Ryegrass, Italian [11, 22]: 85 | Ryegrass, Italian plant response rating [11, 23]: 95 | Plant response rating, Soybean [12, 17]: 0 | Plant response rating, Soybean [12, 18]: 5 | Plant response rating, Soybean [12, 19]: 10 | Plant response rating, Soybean [12, 22]: 0 | Soybean plant response rating [12, 23]: 0 | Plant response rating, Waterhemp [13, 17]: 40 | Plant response rating, Waterhemp [13, 18]: 55 | Plant response rating, Waterhemp [13, 19]: 70 | Plant response rating, Waterhemp [13, 20]: 50 | Plant response rating, Waterhemp [13, 21]: 65 | Plant response rating, Waterhemp [13, 22]: 75 | Waterhemp plant response rating [13, 23]: 85 | Plant response rating, Wheat [14, 17]: 10 | Plant response rating, Wheat [14, 18]: 15 | Plant response rating, Wheat [14, 19]: 25 | Plant response rating, Wheat [14, 20]: 0 | Plant response rating, Wheat [14, 21]: 5 | Plant response rating, Wheat [14, 22]: 20 | Wheat plant response rating [14, 23]: 40 | Plant response rating, Kochia [15, 25]: 80 | Plant response rating, Kochia [15, 26]: 90 | Plant response rating, Kochia [15, 27]: 95 | Plant response rating, Oat, Wild [16, 25]: 55 | Plant response rating, Oat, Wild [16, 26]: 90 | Plant response rating, Oat, Wild [16, 27]: 98
